The text below walks through data of publication PMC10774418, “A cyclin D1 intrinsically disordered domain accesses modified histone motifs to govern gene transcription” (Oncogenesis, 2024).

One test concerns CDK4. The test can be described thus: Mammalian two-hybrid, 293 T. Format: cell-based, human. Conditions: 293 T cells, Fig. S7. On the procedure:
Mammalian two-hybrid was conducted following the manufacturer’s instruction (Promega, Madison, WI). The human CDK4 cDNA was cloned into pBIND vector, and the human cyclin D1 cDNA (wild type or mutants) was cloned into pACT vector to generate fusion proteins with the DNA-binding domain of Gal4 (Gal4-CDK4), and the activation domain of VP16 (VP16-cyclin D1), respectively. Gal4-CDK4, VP16-cyclin D1 and pG5-Luc reporter containing five copies of Gal4 binding sites upstream of a minimal TATA box and the firefly luciferase gene (Promega) were co-transfected into MCF-7 or HEK-293T cells with Superfect reagent 48 h after transfection, the cells were lysed, and the amount of luciferase activity was quantitated. Transfection efficiency was normalized using renilla luciferase.

Test [1] relates to γ-H2AX in cyclin D1^-/- rescue MEFs. The experiment in a line: γ-H2AX abundance / H2A Ser139 phosphorylation after doxorubicin. Format: cell-based, mouse. Conditions: cyclin D1^WT rescued cyclin D1^-/- MEFs, p20 and p21, Western blot. As to the method: Whole-cell lysates (50 μg) were separated by 10% SDS-PAGE gel, and the proteins were transferred to nitrocellulose membrane for Western blotting using the following antibodies: anti-FLAG antibody (M2 Aldrich, #F1804, St. Louis, MO), anti-GST (Cell Signaling, #2624, Danvers, MA), anti-β-tubulin (Santa Cruz Biotechnology, #sc-55529, Santa Cruz, CA), anti-Vinculin (Sigma-Aldrich, #V9131 St. Louis, MO), Topoisomerase 2 A (Santa Cruz Biotechnology, #sc-365916, Santa Cruz, CA), Histone 2B Serine 14 P (Santa Cruz Biotechnology, #sc-31671, Santa Cruz, CA), Histone 2B (Santa Cruz Biotechnology, #sc-10808, Santa Cruz, CA), γH2A.X (Cell Signaling, #9718, Danvers, MA) and H2A.X (Cell Signaling, #2595, Danvers, MA).

For test [2], the system named is cyclin D1-/- 3T3 rescue cells. The experiment in a line: Etoposide sensitivity (cell viability). The class given is cell-based, mouse. The following applies: 5, 10 µM, 24 h, N=6.

For “E280A: cyclin D1 point mutant within the E region”, in the test on CDK4, the CDK4 binding result is recorded as “maintained enhanced binding”.

As to “E278A: cyclin D1 point mutant within the E region”, in the test on CDK4, the CDK4 binding entry is on record as “maintained enhanced binding”.

Consider `COc1cccc2c1C(=O)c1c(O)c3c(c(O)c1C2=O)C[C@@](O)(C(=O)CO)C[C@@H]3O[C@H]1C[C@H](N)[C@H](O)[C@H](C)O1` [doxorubicin], for which, in test [1], the γ-H2AX abundance entry is on record as “increased”.

As for “E278/280 A: cyclin D1 double point mutant within the E region”, the CDK4 binding entry in the test on CDK4 is “maintained enhanced binding”.

For the compound `COc1cc([C@@H]2c3cc4c(cc3[C@@H](O[C@@H]3O[C@@H]5CO[C@@H](C)O[C@H]5[C@H](O)[C@H]3O)[C@H]3COC(=O)[C@H]23)OCO4)cc(OC)c1O` [etoposide], the sensitivity to etoposide result in test [2] (cyclin D1 rescued cells) is given as “more sensitive”. The “change in sensitivity to etoposide” value in test [2] (upon deletion of the E domain) is reported as “modest but significant reduction in sensitivity”.
